Patent US7601736B2, “Pyridine derivatives, a process for their preparation and a pharmaceutical composition containing the same” (SK Chemicals Co., Ltd., priority 2003, dated 2009)

Assays:
TNF-α [1] = test: Cytokine inhibitory activity in cells: LPS-induced TNF-α in RAW 264.7; format: cell-based, murine; conditions: Mus musculus, RAW264.7, RAW 264.7, LPS 1 μg/mL, read-out: TNF-α Inhibition Rate (%); for inhibition at 1 µM: test conc. 1 μM; for inhibition at 10 µM: test conc. 10 μM; for inhibition at 100 µM: test conc. 100 μM; for inhibition at 1000 µM: test conc. 1 mM
Method: General reagents used were purchased from Sigma-Aldrich chem. Co. and cytokine inhibitory activities were tested as follows. Mediums and reagents used in cell culture were purchased from GIBCO BRL (USA), and mouse TNF-α ELISA kit was purchased from R&D system (USA). The apparatus used ELISA reader (Spectra max-Plus 384, Molecular Device, USA).
Murine macrophage cell line RAW 264.7 was kindly provided by Korean Tissue Culture Center (KTCC). The cell line was cultured in DMEM medium containing 10% FBS, in a cell culturing device at the condition of 37° C., 5% CO2. First, murine RAW 264.7 was cultured in DMEM medium containing 10% FBS for about 24 hours, and cells were planted 200 μL each in 96 well plates at the concentration of 5×10^5/mL and cultured for about 24 hours. Then, test compounds were treated at various concentrations and then reacted at 37° C. for about 1 hour, wherein 1 μg/mL of lipopolysaccharide (LPS) was added thereto and reacted at 37° C. for about 12 hours. The supernatant was recovered and the amount of murine TNF-α on the medium was quantitated using ELISA kit. Thalidomide was respectively used as a positive and a negative control to compare the activities and the results are shown in the following tables 4a -4c.

PGE2 = test: Cytokine inhibitory activity in human whole blood (LPS), PGE2 ELISA; format: cell-based; conditions: LPS 1 μg/mL, read-out: PGE2 Inhibition rate (conc.); for inhibition at 300 µg/mL: test conc. 300 μg/mL
Method: (§1) 20 mL of venous whole blood collected respectively from 5 healthy volunteers of men or women, who had never been medicated with anti-inflammatory drugs within the last two weeks, and was added with heparin. 1 mL each of the above blood was respectively collected, and transferred into test tubes in which it was mixed with test material. The above mixture was precultured at 37° C. for about 1 hour. Then it was added with 1 μg/mL of LPS (lipopolysaccharide), allowed to react at the same temperature for about 4 to about 12 hours and then centrifuged at 4° C. at the rate of 3000 rpm for about 10 minutes. Thus produced plasma was respectively collected and its TNF-α in each plasma was quantitated using human TNF-α ELISA kit based on the amount of recombinant TNF-α in humans. The plate used was coated with anti-human TNF-α monoclone IgG antibodies. Likewise, for the test of IL-1α, IL-1α in each plasma was quantitated using the above plasma and human IL-1α ELISA kit based on the amount of recombinant IL-1α in humans. The plate used was coated with anti-human IL-1α monoclone IgG antibodies. Further, for the test of PGE2, PGE2 in each plasma was quantitated using the above plasma and PGE2 ELISA kit based on the amount of recombinant PGE2 in humans. The plate used was coated with anti-human PGE2 monoclone IgG antibodies. From the above tests, inhibitory rates on the expression of each cytokine were obtained and they were compared to that of Indomethacin.

[2] = tested on: ICR (Institute of Cancer Research) mouse; test: Croton oil-induced ear edema test; format: in vivo; conditions: oral
Method: (§2) Male ICR (Institute of Cancer Research) mouse with body weight of about 20 to 30 g were tested wherein each group had 6 mouses. After 1 hour of the oral administration of a test compound, Croton oil (in acetone solution) was coated on one of the ears. After 4 hours, the thickness of the swollen ear in treated group was compared with the other unswollen ear and obtained the average increase rate in thickness of ear by the treatment.

[3] = tested on: ICR (Institute of Cancer Research) mouse; test: Arachidonic acid-induced ear edema test; format: in vivo; conditions: oral
Method: as §2, with “Arachidonic acid” for “Croton oil”, “1 hour,” for “4 hours,”

[4] = tested on: ICR (Institute of Cancer Research) mouse; test: Analgesic test (acetic acid-induced stretchings); format: in vivo; conditions: oral
Method: Male ICR (Institute of Cancer Research) mouse with body weight of about 20 to 30 g were tested wherein each group had 6 mouses. After 1 hour of the oral administration of a test compound, acetic acid (in distilled water) was abdominally administered. For the duration of 10 minutes, the animals were observed regarding the number of stretchings and the number was compared with that of placebo treated group and the result is shown in the following table 7.

IL-1α [5] = test: Cytokine inhibitory activity in animal model (LPS-treated SD rats), plasma IL-1α; format: in vivo, Sprague Dawley (SD) rats; conditions: oral
Method: (§3) Sprague Dawley (SD) rats with body weights of about 180 to about 200 g were fasted (free drinking) and then tested. […] After 2 hours, the rats were sacrificed and bloods were collected from abdominal vein, stored at room temperature for about 2 hours, and then centrifuged at 12,000 rpm for about 2 minutes. Thus produced plasma was respectively collected and its TNF-α in each plasma was quantitated using mouse TNF-α ELISA kit based on the amount of recombinant TNF-α in rats. The plate used was coated with anti-rat TNF-α monoclone IgG antibodies. Likewise, for the test of IL-1α, IL-1α in each plasma was quantitated using the above plasma and mouse IL-1α ELISA kit based on the amount of recombinant IL-1α in rats. The plate used was coated with anti-rat IL-1α monoclone IgG antibodies. Further, for the test of IL-6, IL-6 in each plasma was quantitated using the above plasma and mouse IL-6 ELISA kit based on the amount of recombinant IL-6 in rats. Further, for the test of INF-γ, INF-γ in each plasma was quantitated using the above plasma and mouse INF-γ ELISA kit based on the amount of recombinant INF-γ in rats. The plate used was coated with anti-rat INF-γ monoclone IgG antibodies. From the above tests, inhibitory rates on the expression of each cytokine were obtained and they were compared to that of Indomethacin.

TNF-α [6] = test: Cytokine inhibitory activity in human whole blood (LPS), TNF-α ELISA; format: cell-based; conditions: LPS 1 μg/mL, read-out: TNF-α Inhibition rate (conc.); for inhibition at 0.1 µg/mL: test conc. 100 ng/mL
Method: as §1

INF-γ = test: Cytokine inhibitory activity in animal model (LPS-treated SD rats), plasma INF-γ; format: in vivo, Sprague Dawley (SD) rats; conditions: oral
Method: as §3

TNF-α [7] = test: Cytokine inhibitory activity in animal model (LPS-treated SD rats), plasma TNF-α; format: in vivo, Sprague Dawley (SD) rats; conditions: Rattus norvegicus, 2 h; SD rats, oral, LPS; 40 mg/kg; read-out: TNF-α Inhibition Rate (Conc.)
Method: Sprague Dawley (SD) rats with body weights of about 180 to about 200 g were fasted (free drinking) and then tested. Test compounds were administered orally at 40 mg/kg and then abdominally administered with LPS 1 μg/mL after 1 hour. After 2 hours, the rats were sacrificed and bloods were collected from abdominal vein, stored at room temperature for about 2 hours, and then centrifuged at 12,000 rpm for about 2 minutes. Thus produced plasma was respectively collected and its TNF-α in each plasma was quantitated using mouse TNF-α ELISA kit based on the amount of recombinant TNF-α in rats. The plate used was coated with anti-rat TNF-α monoclone IgG antibodies. Likewise, for the test of IL-1α, IL-1α in each plasma was quantitated using the above plasma and mouse IL-1α ELISA kit based on the amount of recombinant IL-1α in rats. The plate used was coated with anti-rat IL-1α monoclone IgG antibodies. Further, for the test of IL-6, IL-6 in each plasma was quantitated using the above plasma and mouse IL-6 ELISA kit based on the amount of recombinant IL-6 in rats. Further, for the test of INF-γ, INF-γ in each plasma was quantitated using the above plasma and mouse INF-γ ELISA kit based on the amount of recombinant INF-γ in rats. The plate used was coated with anti-rat INF-γ monoclone IgG antibodies. From the above tests, inhibitory rates on the expression of each cytokine were obtained and they were compared to that of Indomethacin.

IL-1α [8] = test: Cytokine inhibitory activity in human whole blood (LPS), IL-1α ELISA; format: cell-based; conditions: LPS 1 μg/mL, read-out: IL-1α Inhibition rate (conc.); for inhibition at 0.1 µg/mL: test conc. 100 ng/mL
Method: as §1

IL-6 = test: Cytokine inhibitory activity in animal model (LPS-treated SD rats), plasma IL-6; format: in vivo, Sprague Dawley (SD) rats; conditions: oral
Method: as §3

TNF-α [9] = test: Cytokine inhibitory activity in animal model (LPS-treated SD rats), plasma TNF-α; format: in vivo, Sprague Dawley (SD) rats; conditions: Rattus norvegicus, 2 h, oral, read-out: TNF-α Inhibition Rate (Conc.)

Structure (SMILES): O=C1OCCc2ccncc21 [Ex. 3, 3,4-dihydro-pyrano[3,4-c]pyridine-1-on]
- inhibition at 1 µM (TNF-α [1]): 34%
- inhibition at 10 µM (TNF-α [1]): 35%
- inhibition at 100 µM (TNF-α [1]): 43%
- inhibition at 1000 µM (TNF-α [1]): 44%
- inhibition at 300 µg/mL (PGE2): 24%
- Inhibition Rate (%) ([2]; 2 mg/kg): 33%
- Inhibition Rate (%) ([2]; 10 mg/kg): 56%
- Inhibition Rate (%) ([2]; 50 mg/kg): 57%
- Inhibition Rate (%) ([3]; 2 mg/kg): 33%
- Inhibition Rate (%) ([3]; 10 mg/kg): 51%
- Inhibition Rate (%) ([3]; 50 mg/kg): 46%
- Inhibition Rate (%) ([4]; 10 mg/kg): 76%
- Inhibition Rate (%) ([4]; 50 mg/kg): 92%
- IL-α Inhibition rate (conc.) (IL-1α [5]; 40 mg/kg): 65% (40 mg/kg)
- inhibition at 0.1 µg/mL (TNF-α [6]): 90%
- INF-γ Inhibition rate (conc.) (INF-γ; 40 mg/kg): 48% (40 mg/kg)
- inhibition in vivo at 40 mg/kg (TNF-α [7]): 75%
- inhibition at 0.1 µg/mL (IL-1α [8]): 95%
- IL-6 Inhibition rate (conc.) (IL-6; 40 mg/kg): 71% (40 mg/kg)

Structure (SMILES): Cc1cc2c(cn1)C(=O)OCC2 [Ex. 6, 6-methyl-3,4-dihydro-pyrano[3,4-c]pyridine-1-on]
- inhibition at 1 µM (TNF-α [1]): 30%
- inhibition at 10 µM (TNF-α [1]): 35%
- inhibition at 100 µM (TNF-α [1]): 36%
- inhibition at 1000 µM (TNF-α [1]): 38%
- inhibition at 300 µg/mL (PGE2): 23%
- Inhibition Rate (%) ([2]; 2 mg/kg): 17%
- Inhibition Rate (%) ([2]; 10 mg/kg): 39%
- Inhibition Rate (%) ([2]; 50 mg/kg): 69%
- Inhibition Rate (%) ([3]; 2 mg/kg): 21%
- Inhibition Rate (%) ([3]; 10 mg/kg): 36%
- Inhibition Rate (%) ([3]; 50 mg/kg): 41%
- Inhibition Rate (%) ([4]; 10 mg/kg): 76%
- Inhibition Rate (%) ([4]; 50 mg/kg): 75%
- IL-α Inhibition rate (conc.) (IL-1α [5]; 40 mg/kg): 52% (40 mg/kg)
- inhibition at 0.1 µg/mL (TNF-α [6]): 84%
- INF-γ Inhibition rate (conc.) (INF-γ; 40 mg/kg): 51% (40 mg/kg)
- inhibition in vivo at 40 mg/kg (TNF-α [7]): 39%
- inhibition at 0.1 µg/mL (IL-1α [8]): 90%
- IL-6 Inhibition rate (conc.) (IL-6; 40 mg/kg): 78% (40 mg/kg)

Structure (SMILES): C=Cc1cncc2c1CCOC2=O [Ex. 9, 5-vinyl-3,4-dihydro-pyrano[3,4-c]pyridine-1-on]
- inhibition at 1 µM (TNF-α [1]): 37%
- inhibition at 10 µM (TNF-α [1]): 38%
- inhibition at 100 µM (TNF-α [1]): 39%
- inhibition at 1000 µM (TNF-α [1]): 41%
- inhibition at 300 µg/mL (PGE2): 38%
- Inhibition Rate (%) ([2]; 2 mg/kg): 25%
- Inhibition Rate (%) ([2]; 10 mg/kg): 44%
- Inhibition Rate (%) ([2]; 50 mg/kg): 37%
- Inhibition Rate (%) ([3]; 2 mg/kg): 21%
- Inhibition Rate (%) ([3]; 10 mg/kg): 29%
- Inhibition Rate (%) ([3]; 50 mg/kg): 39%
- Inhibition Rate (%) ([4]; 10 mg/kg): 73%
- Inhibition Rate (%) ([4]; 50 mg/kg): 76%
- IL-α Inhibition rate (conc.) (IL-1α [5]; 40 mg/kg): 62% (40 mg/kg)
- inhibition at 0.1 µg/mL (TNF-α [6]): 82%
- INF-γ Inhibition rate (conc.) (INF-γ; 40 mg/kg): 45% (40 mg/kg)
- inhibition in vivo at 40 mg/kg (TNF-α [7]): 59%
- inhibition at 0.1 µg/mL (IL-1α [8]): 93%
- IL-6 Inhibition rate (conc.) (IL-6; 40 mg/kg): 43% (40 mg/kg)

Structure (SMILES): COc1ccc2c(c1)c(CC(=O)O)c(C)n2C(=O)c1ccc(Cl)cc1 [Indomethacin, reference compound]
- inhibition in vivo at 200 mg/kg (TNF-α [9]): 46%
- inhibition at 200 µg/mL (PGE2; test conc. 200 μg/mL): 37%
- IL-α Inhibition rate (conc.) (IL-1α [5]; 200 mg/kg): 24% (200 mg/kg)
- inhibition at 200 µg/mL (TNF-α [6]; test conc. 200 μg/mL): 37%
- INF-γ Inhibition rate (conc.) (INF-γ; 200 mg/kg): 13% (200 mg/kg)
- inhibition at 200 µg/mL (IL-1α [8]; test conc. 200 μg/mL): 25%
- IL-6 Inhibition rate (conc.) (IL-6; 200 mg/kg): 60% (200 mg/kg)
